The results in this text go back to patent publication US10961234B2, “Oxazole derivatives for use in the treatment of cancer” (LIFEARC, priority 2016, dated 2021).

One experiment deals with T1, WT full length PAICS (Homo sapiens, UniProt P22234).
T1 construct: 5 μl WT full length PAICS (final assay concentration, fac, 2.5 nM) in basic buffer
T1 sequence (P22234 1-425): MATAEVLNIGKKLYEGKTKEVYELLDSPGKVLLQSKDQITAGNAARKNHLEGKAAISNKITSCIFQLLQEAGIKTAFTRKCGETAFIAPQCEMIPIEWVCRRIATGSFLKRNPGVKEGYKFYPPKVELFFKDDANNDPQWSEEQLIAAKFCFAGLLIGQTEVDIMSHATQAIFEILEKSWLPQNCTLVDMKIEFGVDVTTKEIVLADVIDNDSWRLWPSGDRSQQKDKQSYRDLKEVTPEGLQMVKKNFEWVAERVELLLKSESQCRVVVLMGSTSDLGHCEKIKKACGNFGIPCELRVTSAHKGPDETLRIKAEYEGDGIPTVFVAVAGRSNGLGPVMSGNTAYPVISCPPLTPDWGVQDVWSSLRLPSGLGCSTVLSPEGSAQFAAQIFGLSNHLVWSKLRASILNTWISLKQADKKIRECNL
Kind of experiment: Biochemical assay to measure PAICS activity (Transcreener ADP2 FI, SAICAR synthetase reaction). The conditions noted are these: PAICS 2.5 nM, 30 mins pre-incubation, ADP detection by fluorescence intensity. The procedure, abridged:
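Enzyme (2.5 nM) pre-incubated 30 min RT with compound (top 1 mM or 30 μM, half-log 10-point, duplicate) in 50 mM Tris-HCl pH8, 0.5 mM EDTA; CAIR (10 μM, ~5 μM after 1 h AIR/CAIR equilibration with MgCl2/KHCO3) then ATP/aspartate (30 μM/180 μM) for 30 min RT. ADP read by Transcreener fluorescence intensity (590/617 nm).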

For experiment [1], the system named is LM2 and MDA-MB-231 breast cancer cell lines. Kind of experiment: PAICS 2D cell proliferation assay. It is filed as cell-based. The note with it: Homo sapiens; 72 hours incubation; cell line (LM2 or MDA-MB-231) not given. The procedure, abridged: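 Cells seeded at 1000/well, dosed after 24 h with a 10-point ½-log series (top 100 μM, 1% DMSO final), then incubated 72 h at 37 °C. Dead cells measured by CellTox Green DNA staining and viability by CellTiter-Glo ATP luminescence, both expressed as % of controls (mean±SEM, duplicate curves).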

Experiment [2] has as its system wild type LM2 and CRISPR edited LM2. Kind of experiment: Cell potency in CRISPR edited (PAICS knock-out) LM2 versus wild type LM2. It is filed as cell-based, human. The note with it: CRISPR edited LM2 vs wild type LM2. The method, then: Cas9 nuclease-mediated gene editing (Sander and Joung, 2014) was performed using a CRISPR RNA guide sequence ([…], PAM: AGG) targeting exon 3 in the human PAICS gene (accession number: NM_006452).
Stable cell clones were isolated and gene disruption confirmed by DNA sequencing and the absence of PAICS cellular protein expression confirmed by Western blotting.
A small set of compounds were tested against wild type LM2 and CRISPR edited LM2 to see to what extent the cellular potency was driven by PAICS mediated effects.

Bounds are passed on as bounds.

On to `CCNCCCn1cc(-c2ccc(Cl)c(NC(=O)c3coc(N)n3)c2)cn1` [Example 47, 2-Amino-N-(2-chloro-5-(1-(3-(ethylamino)propyl)-1H-pyrazol-4-yl)phenyl)oxazole-4-carboxamide], for which the IC50 on WT full length PAICS was in the range of 10 to 25 nM. The EC50 in experiment [1] was below 100 nM. The “Potency shift: CRISPR Cell EC50/WT Cell EC50” value in experiment [2] is given as above 80.
Compound `CN(C)CCCOc1ncc(-c2ccc(Cl)c(NC(=O)c3coc(N)n3)c2)s1` [Example 86, 2-Amino-N-(2-chloro-5-{2-[3-(dimethylamino)propoxy]-1,3-thiazol-5-yl}phenyl)-1,3-oxazole-4-carboxamide] registered an IC50 against WT full length PAICS below 10 nM. The same compound registered an EC50 in experiment [1] below 100 nM. In addition, in experiment [2], the “Potency shift: CRISPR Cell EC50/WT Cell EC50” value is on record as above 30.
For `CN1CCN(c2ccc(-c3ccc(Cl)c(NC(=O)c4coc(N)n4)c3)cn2)CC1` [Example 37, 2-Amino-N-{2-chloro-5-[6-(4-methylpiperazin-1-yl)pyridin-3-yl]phenyl}-1,3-oxazole-4-carboxamide], in that order: above 100 nM, 100 to 250 nM and above 10.
`CN(C)CCNC(=O)Cn1cc(-c2ccc(Cl)c(NC(=O)c3coc(N)n3)c2)cn1` [Example 58, 2-Amino-N-{2-chloro-5-[1-(2-{[2-(dimethylamino)ethyl]amino}-2-oxoethyl)-1H-pyrazol-4-yl]phenyl}-1,3-oxazole-4-carboxamide]: the IC50 on WT full length PAICS is 25 to 100 nM. Moreover, in experiment [1], the EC50 was 250 to 500 nM.
In the case of `Nc1nc(C(=O)Nc2cc(-c3nc(CN4CCNCC4)cs3)ccc2Cl)co1` [Example 89, 2-Amino-N-{2-chloro-5-[4-(piperazin-1-ylmethyl)-1,3-thiazol-2-yl]phenyl}-1,3-oxazole-4-carboxamide], on WT full length PAICS, the IC50 is below 10 nM. In experiment [1], the EC50 is below 100 nM.
For `Nc1nc(C(=O)Nc2cc(-c3cnc(OC4CCNCC4)nc3)ccc2Cl)co1` [Example 82, 2-Amino-N-{2-chloro-5-[2-(piperidin-4-yloxy)pyrimidin-5-yl]phenyl}-1,3-oxazole-4-carboxamide], in that order: 10 to 25 nM and 250 to 500 nM.
Take `Nc1nc(C(=O)Nc2cc(-c3cnn(CCN4CCNCC4)c3)ccc2Cl)co1` [Example 81, 2-Amino-N-(2-chloro-5-{1-[2-(piperazin-1-yl)ethyl]-1H-pyrazol-4-yl}phenyl)-1,3-oxazole-4-carboxamide]: the IC50 against WT full length PAICS was in the range of 25 to 100 nM. Moreover, the EC50 in experiment [1] was 250 to 500 nM.
